Laboratory results taken from patent publication US7256187B2, “Rifamycin C-11 oxime derivatives effective against drug-resistant microbes” (Cumbre Pharmaceuticals Inc., priority 2004, dated 2007).
Converted amounts (≈) assume the structure as drawn.

Legend:
Type in all cases: cell-based
[1] = system: Staphylococcus aureus ATCC29213; test: MIC, microbroth dilution; details: Staphylococcus aureus ATCC29213, rifS; read-out: Antimicrobial activity (MIC)
[2] = system: Staphylococcus aureus ATCC29213 rpoB^D417Y; test: microbe, parasite or virus in culture; details: Staphylococcus aureus ATCC29213 rpoB^D417Y, rifR; read-out: Antimicrobial activity (MIC)
Procedure: (§1) Representative compounds were assayed for antimicrobial activity as follows: Minimum Inhibitory Concentrations (“MICs”) were determined by the microbroth dilution method as per NCCLS guidelines (National Committee for Clinical Laboratory Standards. 2000. Methods for dilution antimicrobial susceptibility tests for bacteria that grow aerobically, 5th ed. M7-A5. National Committee for Clinical Laboratory Standards, Wayne, Pa.), except that all growth incubations were conducted at 37° C. Bacterial cultures were tested in the following bacteriological media: S. aureus, S. epidermidis, and E. coli in Cation-Adjusted Mueller-Hinton Broth, S. pneumoniae in THY Broth supplemented with 1 mg/mL catalase under 5% CO2 atmosphere, S. pyogenes in THY Broth, E. faecalis in BHI Broth, H. influenzae in BHI Broth supplemented with 0.75 μL of 1 mg/mL NAD and 150 μL of 1 mg/ml hematin per 5 mL, and M. smegmatis in Middlebrook Broth plus ADC Enrichment.
(§2) S. aureus ATCC 29213 RpoB^H418Y is a rifampin-resistant strain with a mutation in the RpoB gene of RNA polymerase. […] S. aureus EN1252a gyrA^S84L grlA^S80F is a quinolone-resistant strain due to double gene mutations of DNA gyrase and topoisomerase IV.

[3] = system: Staphylococcus aureus ATCC29213 rpoB^H418Y; test: microbe, parasite or virus in culture; details: Staphylococcus aureus ATCC29213 rpoB^H418Y, rifR; read-out: Antimicrobial activity (MIC)
Procedure: as §1, §2

[4] = system: Staphylococcus aureus EN1252a gyrA^S84L grlA^S80F; test: microbe, parasite or virus in culture; details: Staphylococcus aureus EN1252a gyrA^S84L grlA^S80F, cipR; read-out: Antimicrobial activity (MIC)
Procedure: as §1, §2

[5] = system: Staphylococcus epidermidis ATCC12228; test: MIC, microbroth dilution; details: Staphylococcus epidermidis ATCC12228, rifS; read-out: Antimicrobial activity (MIC)
[6] = system: Streptococcus pneumoniae ATCC6303; test: MIC, microbroth dilution; details: Streptococcus pneumoniae ATCC6303, rifS; read-out: Antimicrobial activity (MIC)
[7] = system: Streptococcus pyogenes ATCC19615; test: MIC, microbroth dilution; details: Streptococcus pyogenes ATCC19615, rifS; read-out: Antimicrobial activity (MIC)
[8] = system: Enterococcus faecalis ATCC29212; test: MIC, microbroth dilution; details: Enterococcus faecalis ATCC29212, rifS; read-out: Antimicrobial activity (MIC)
[9] = system: Haemophilus influenzae ATCC10211; test: MIC, microbroth dilution; details: Haemophilus influenzae ATCC10211, rifS; read-out: Antimicrobial activity (MIC)
[10] = system: Escherichia coli ATCC25922; test: MIC, microbroth dilution; details: Escherichia coli ATCC25922, rifS; read-out: Antimicrobial activity (MIC)
[11] = system: Mycobacterium smegmatis ATCC700084; test: MIC, microbroth dilution; details: Mycolicibacterium smegmatis; Mycobacterium smegmatis ATCC700084, rifS; read-out: Antimicrobial activity (MIC)

| SMILES | MIC [1] | MIC [2] | MIC [3] | MIC [4] | MIC [5] | MIC [6] | MIC [7] | MIC [8] | MIC [9] | MIC [10] | MIC [11] |
| --- | --- | --- | --- | --- | --- | --- | --- | --- | --- | --- | --- |
| CO[C@H]1/C=C/O[C@@]2(C)Oc3c(C)c(O)c4c(c3/C2=N/OCCN2CCOCC2)C(=O)C=C(NC(=O)/C(C)=C\C=C\[C@H](C)[C@H](O)[C@@H](C)[C@@H](O)[C@@H](C)[C@H](OC(C)=O)[C@@H]1C)C4=O [Example 24] | 0.004 to 0.5 µg/mL (≈ 0.00485 to 0.607 µM) | 0.25 to 32 µg/mL (≈ 0.303 to 38.8 µM) | 0.125 to 16 µg/mL (≈ 0.152 to 19.4 µM) | 0.004 to 0.5 µg/mL (≈ 0.00485 to 0.607 µM) | 0.0005 to 0.063 µg/mL (≈ 0.000607 to 0.0765 µM) | 0.0002 to 0.125 µg/mL (≈ 0.000243 to 0.152 µM) | 0.0005 to 0.063 µg/mL (≈ 0.000607 to 0.0765 µM) | 2 to 32 µg/mL (≈ 2.43 to 38.8 µM) | 0.03 to 2 µg/mL (≈ 0.0364 to 2.43 µM) | 0.125 to 8 µg/mL (≈ 0.152 to 9.71 µM) | 0.5 to 64 µg/mL (≈ 0.607 to 77.7 µM) |
| CO[C@H]1/C=C/O[C@@]2(C)Oc3c(C)c(O)c4c(c3/C2=N/OCCN2CCN(Cc3ccccc3)CC2)C(=O)C=C(NC(=O)/C(C)=C\C=C\[C@H](C)[C@H](O)[C@@H](C)[C@@H](O)[C@@H](C)[C@H](OC(C)=O)[C@@H]1C)C4=O [Example 25, 11-Deoxy-11-[2-(4-benzylpiperazin-1-yl)ethoxyimino]rifamycin S] | 0.004 to 0.5 µg/mL (≈ 0.00438 to 0.548 µM) | 0.25 to 32 µg/mL (≈ 0.274 to 35 µM) | 0.125 to 16 µg/mL (≈ 0.137 to 17.5 µM) | 0.004 to 0.5 µg/mL (≈ 0.00438 to 0.548 µM) | 0.0005 to 0.063 µg/mL (≈ 0.000548 to 0.069 µM) | 0.0002 to 0.125 µg/mL (≈ 0.000219 to 0.137 µM) | 0.0005 to 0.063 µg/mL (≈ 0.000548 to 0.069 µM) | 2 to 32 µg/mL (≈ 2.19 to 35 µM) | 0.03 to 2 µg/mL (≈ 0.0329 to 2.19 µM) | 0.125 to 8 µg/mL (≈ 0.137 to 8.76 µM) | 0.5 to 64 µg/mL (≈ 0.548 to 70.1 µM) |
| CO[C@H]1/C=C/O[C@@]2(C)Oc3c(C)c(O)c4c(c3/C2=N/OCCN2CCN(c3ccccc3O)CC2)C(=O)C=C(NC(=O)/C(C)=C\C=C\[C@H](C)[C@H](O)[C@@H](C)[C@@H](O)[C@@H](C)[C@H](OC(C)=O)[C@@H]1C)C4=O [Example 26, 11-Deoxy-11-{2-[4-(2-hydroxy-phenyl)piperazin-1-yl]ethoxyimino}rifamycin S] | 0.004 to 0.5 µg/mL (≈ 0.00437 to 0.546 µM) | 0.25 to 32 µg/mL (≈ 0.273 to 35 µM) | 0.125 to 16 µg/mL (≈ 0.137 to 17.5 µM) | 0.004 to 0.5 µg/mL (≈ 0.00437 to 0.546 µM) | 0.0005 to 0.063 µg/mL (≈ 0.000546 to 0.0688 µM) | 0.0002 to 0.125 µg/mL (≈ 0.000219 to 0.137 µM) | 0.0005 to 0.063 µg/mL (≈ 0.000546 to 0.0688 µM) | 2 to 32 µg/mL (≈ 2.19 to 35 µM) | 0.03 to 2 µg/mL (≈ 0.0328 to 2.19 µM) | 0.125 to 8 µg/mL (≈ 0.137 to 8.74 µM) | 0.5 to 64 µg/mL (≈ 0.546 to 69.9 µM) |
| CO[C@H]1/C=C/O[C@@]2(C)Oc3c(C)c(O)c4c(c3/C2=N/O)C(=O)C(CO)=C(NC(=O)/C(C)=C\C=C\[C@H](C)[C@H](O)[C@@H](C)[C@@H](O)[C@@H](C)[C@H](OC(C)=O)[C@@H]1C)C4=O [Example 27] | 0.004 to 0.5 µg/mL (≈ 0.0054 to 0.675 µM) | 0.25 to 32 µg/mL (≈ 0.337 to 43.2 µM) | 0.125 to 16 µg/mL (≈ 0.169 to 21.6 µM) | 0.004 to 0.5 µg/mL (≈ 0.0054 to 0.675 µM) | 0.0005 to 0.063 µg/mL (≈ 0.000675 to 0.085 µM) | 0.0002 to 0.125 µg/mL (≈ 0.00027 to 0.169 µM) | 0.0005 to 0.063 µg/mL (≈ 0.000675 to 0.085 µM) | 2 to 32 µg/mL (≈ 2.7 to 43.2 µM) | 0.03 to 2 µg/mL (≈ 0.0405 to 2.7 µM) | 0.125 to 8 µg/mL (≈ 0.169 to 10.8 µM) | 0.5 to 64 µg/mL (≈ 0.675 to 86.4 µM) |
| CO[C@H]1/C=C/O[C@@]2(C)Oc3c(C)c(O)c4c(c3/C2=N/OCC(=O)O)C(=O)C(N2CCOCC2)=C(NC(=O)/C(C)=C\C=C\[C@H](C)[C@H](O)[C@@H](C)[C@@H](O)[C@@H](C)[C@H](OC(C)=O)[C@@H]1C)C4=O [Example 28, 11-Deoxy-3-(morpholin-4-yl)-11-(4-carboxymethoxyimino)-rifamycin S] | 0.004 to 0.5 µg/mL (≈ 0.00468 to 0.586 µM) | 0.25 to 32 µg/mL (≈ 0.293 to 37.5 µM) | 0.125 to 16 µg/mL (≈ 0.146 to 18.7 µM) | 0.004 to 0.5 µg/mL (≈ 0.00468 to 0.586 µM) | 0.0005 to 0.063 µg/mL (≈ 0.000586 to 0.0738 µM) | 0.0002 to 0.125 µg/mL (≈ 0.000234 to 0.146 µM) | 0.0005 to 0.063 µg/mL (≈ 0.000586 to 0.0738 µM) | 2 to 32 µg/mL (≈ 2.34 to 37.5 µM) | 0.03 to 2 µg/mL (≈ 0.0351 to 2.34 µM) | 0.125 to 8 µg/mL (≈ 0.146 to 9.37 µM) | 0.5 to 64 µg/mL (≈ 0.586 to 74.9 µM) |
| CO[C@H]1/C=C/O[C@@]2(C)Oc3c(C)c(O)c4c(c3/C2=N/OCC(=O)N2CCN(c3cc5c(cc3F)c(=O)c(C(=O)O)cn5C3CC3)CC2)C(=O)C(N2CCOCC2)=C(NC(=O)/C(C)=C\C=C\[C@H](C)[C@H](O)[C@@H](C)[C@@H](O)[C@@H](C)[C@H](OC(C)=O)[C@@H]1C)C4=O [Example 29, 11-Deoxy-3-(morpholin-4-yl)-11-{2-oxo-2-[4-(3-carboxy-1-cyclopropl-6-fluoro-4-oxo-1,4-dihydroquinolin-7-yl)piperazin-1-yl]ethoxyimino}rifamycin S] | 0.004 to 0.5 µg/mL (≈ 0.00343 to 0.428 µM) | 0.25 to 32 µg/mL (≈ 0.214 to 27.4 µM) | 0.125 to 16 µg/mL (≈ 0.107 to 13.7 µM) | 0.004 to 0.5 µg/mL (≈ 0.00343 to 0.428 µM) | 0.0005 to 0.063 µg/mL (≈ 0.000428 to 0.054 µM) | 0.0002 to 0.125 µg/mL (≈ 0.000171 to 0.107 µM) | 0.0005 to 0.063 µg/mL (≈ 0.000428 to 0.054 µM) | 2 to 32 µg/mL (≈ 1.71 to 27.4 µM) | 0.03 to 2 µg/mL (≈ 0.0257 to 1.71 µM) | 0.125 to 8 µg/mL (≈ 0.107 to 6.85 µM) | 0.5 to 64 µg/mL (≈ 0.428 to 54.8 µM) |
